Results reported in US9452130B2, “Pharmaceutical composition for preparing drug delivery nano/micro bubbles” (priority 2014, dated 2016).

How the values were obtained:
diabetic rats = experiment: Blood glucose change in diabetic rats after oral or subcutaneous administration; format: in vivo, male Wistar rats; conditions: subcutaneous injection, 5 IU/kg, 0 to 10 hours; FIG. 5
Protocol: Animal experimental procedures were performed based on the management and use of laboratory animals guidelines promulgated by the Council of Agriculture. About 300 to 350 grams of male rats (male Wistar rats) were used. The animal experiments were performed to investigate the treatment of diabetic rats using insulin-embedded carrier system by oral administration of drugs. During experiment, the rats were administrated by oral (30 IU/Kg) and subcutaneous (5 IU/Kg) administration after the rats were fixed. At different times, the animals were placed in the blood-drawing fixation frame to expose the tail, and then the tails were disinfected with iodine to prevent bacterial infection. […] Meanwhile, pharmacokinetics was measured using enzyme immunoassay. In the present example, groups comprising nano/micro bubbles of the present invention (containing 30 IU/kg of insulin), oral administration (30 IU/kg of insulin) and subcutaneous injection of insulin (5 IU/kg) are compared. The change rates in plasma insulin and blood glucose concentration from 0 to 10 hours after subjects taking insulin or injected with insulin were recorded respectively, and the results are illustrated in FIGS. 5a and 5b.

cells = experiment: Cell images of cells co-cultured with the components of the nano/micro bubbles (FITC-insulin transmission); format: cell-based; conditions: cells co-cultured with the component; stained with Cld 4, E-cadherin, DAPI; FIG. 3

Row | Compound | change rate of the blood glucose (diabetic rats) | transmission of FITC-insulin (pathway) (cells)
1 | insulin | rapidly declined and rose again | –
2 | CCCCCCCCCCCCOS(=O)(=O)[O-].[Na+] [SDS] | – | can promote transmission of FITC-insulin via both of paracellular pathway and transcellular pathway
3 | O=C(O)CN(CCN1CC(=O)OC(=O)C1)CCN1CC(=O)OC(=O)C1 [DTPA dianhydride, diethylenetriaminepentaacetic dianhydride] | – | can promote transmission of FITC-insulin via paracellular pathway
